13 compounds from PMC3135787 (Antiviral research, 2011) can be followed below.

Read-outs that look alike come from different tables or passages of the source.

For data set [1], the system named is ET replicon with NS5B P495L. The data set is described as follows: microbe, parasite or virus in culture. In kind it is cell-based, HCV.
For data set [2], the system named is erythroid progenitor cells (CFU-E and BFU-E). The data set is described as follows: Human bone marrow stem cell toxicity, 14-day colony formation, erythroid. In kind it is cell-based. The following applies: 1 μg/mL (4 μM), 14 days.
For data set [3], the system named is myeloid progenitor cells (CFU-GM). The data set is described as follows: Human bone marrow stem cell toxicity, 14-day colony formation, myeloid. Format: cell-based. The conditions noted are these: 1 μg/mL (4 μM), 14 days.
The test system of data set [4] is primary human hepatocytes. The conditions noted are these: primary human hepatocytes from three donors.
Data set [5] concerns ET replicon with NS5B M414T. The data set is described as follows: microbe, parasite or virus in culture. In kind it is cell-based, HCV.
Data set [6] concerns Human nucleoside diphosphate kinase (NDPK). The data set is described as follows: NDPK-mediated phosphorylation, coupled assay. Format: biochemical. The conditions noted are these: for kcat (apparent): 25 °C, PK contributed in the phosphorylation; for Km: read-out: Km (apparent), 25 °C, PK contributed in the phosphorylation.
Data set [7] is described as follows: 8-day MTS cytotoxicity assay, BxPC3. In kind it is cell-based, human. The following applies: human. A general note: Formazan colour is commonly taken as a measure of viable cells.
Data set [8] in a line: 8-day MTS cytotoxicity assay, Huh7. Format: cell-based, human. The following applies: human.
Data set [9] in a line: 8-day MTS cytotoxicity assay, CEM. The conditions noted are these: human. Format: cell-based, human.
Data set [10] is described as follows: 8-day MTS cytotoxicity assay, HepG2. In kind it is cell-based, human. The following applies: human.
Data set [11] has as its system ribosomal DNA (rDNA). The data set is described as follows: Mitochondrial COXII DNA and ribosomal DNA by real time PCR, HepG2. In kind it is cell-based, human. The following applies: human. Background: Quantitative PCR measures a nucleic acid by following its amplification.
Data set [12] deals with mitochondrial COXII DNA (mtDNA). Described as above. Format: cell-based, human. The conditions noted are these: human.
For data set [13], the system named is ribosomal DNA (rDNA). The data set is described as follows: Mitochondrial COXII DNA and ribosomal DNA by real time PCR, CEM. In kind it is cell-based, human. The following applies: human.
Data set [14] deals with mitochondrial COXII DNA (mtDNA). Described as above. The conditions noted are these: human. In kind it is cell-based, human.
Data set [15] concerns ET replicon with NS5B S96T/N142T. The data set is described as follows: microbe, parasite or virus in culture. The conditions noted are these: for EC90: read-out: EC90 Mutant replicon; for EC90 fold change: S96T/N142T mutant EC90 normalised to wild-type. Format: cell-based, HCV. For orientation: Replicon systems follow genome replication, usually without infectious particles.

The test system of data set [16] is Clone A wild type replicon. The data set is described as follows: Cross resistance: Clone A wild type replicon, RT-PCR. Format: cell-based, HCV. The following applies: read-out: EC90 WT replicon.
Data set [17] concerns CEM cells. The data set is described as follows: Lactic acid production, CEM. The conditions noted are these: 7 days, normalised to rDNA.
The subject of data set [18] is HepG2 cells. The data set is described as follows: Lactic acid production, HepG2. The conditions noted are these: 7 days, normalised to rDNA.
The subject of data set [19] is Clone A replicon with NS5B S282T. The data set is described as follows: microbe, parasite or virus in culture. In kind it is cell-based, HCV. The conditions noted are these: for EC90: read-out: EC90 Mutant replicon; for EC90 fold change: S282T mutant EC90 normalised to wild-type.
In data set [20] the test system is genotype 1b ET replicon, wild type. Format: cell-based, HCV. The following applies: read-out: EC90 WT replicon; wild-type ET replicon, luciferase-based assay.
For data set [21], the target named is 3-phosphoglycerate kinase (3-PGK) (Saccharomyces cerevisiae, UniProt P00560). The data set is described as follows: Phosphorylation by 3-phosphoglycerate kinase. In kind it is biochemical, bakers yeast. The conditions noted are these: kinetic parameters unable to be determined (Km too high).
The target of data set [22] is rabbit muscle PK (Oryctolagus cuniculus, UniProt P11974). The data set is described as follows: Phosphorylation by pyruvate kinase. In kind it is biochemical. The following applies: kinetic parameters unable to be determined (Km too high).
Data set [23] deals with primary human hepatocytes. The data set is described as follows: Metabolism of [3H]-PSI-353661 in primary human hepatocytes. The conditions noted are these: continuous exposure to 5 μM [3H]-PSI-353661. In kind it is in vitro ADME.
Data set [24] deals with ET replicon with NS5B M423T. In kind it is cell-based, HCV.
In data set [25] the target is L-alanine dehydrogenase (Ala-DH) (Bacillus subtilis, UniProt Q08352).
For data set [26], the system named is HepG2 cells. The data set is described as follows: Mitochondrial COXII DNA and ribosomal DNA by real time PCR, HepG2. The following applies: HepG2 cells, 0.5 μM (lowest concentration tested), 14 days. Format: cell-based, human.
For data set [27], the system named is CEM cells. The data set is described as follows: Mitochondrial COXII DNA and ribosomal DNA by real time PCR, CEM. The conditions noted are these: CEM cells, 0.5 μM (lowest concentration tested), 14 days. In kind it is cell-based, human.
Data set [28] relates to primary human hepatocytes.
[29] abbreviates: Hepatitis C virus, read-out: EC90 Mutant replicon.

Sequence of rabbit muscle PK (P11974 whole entry): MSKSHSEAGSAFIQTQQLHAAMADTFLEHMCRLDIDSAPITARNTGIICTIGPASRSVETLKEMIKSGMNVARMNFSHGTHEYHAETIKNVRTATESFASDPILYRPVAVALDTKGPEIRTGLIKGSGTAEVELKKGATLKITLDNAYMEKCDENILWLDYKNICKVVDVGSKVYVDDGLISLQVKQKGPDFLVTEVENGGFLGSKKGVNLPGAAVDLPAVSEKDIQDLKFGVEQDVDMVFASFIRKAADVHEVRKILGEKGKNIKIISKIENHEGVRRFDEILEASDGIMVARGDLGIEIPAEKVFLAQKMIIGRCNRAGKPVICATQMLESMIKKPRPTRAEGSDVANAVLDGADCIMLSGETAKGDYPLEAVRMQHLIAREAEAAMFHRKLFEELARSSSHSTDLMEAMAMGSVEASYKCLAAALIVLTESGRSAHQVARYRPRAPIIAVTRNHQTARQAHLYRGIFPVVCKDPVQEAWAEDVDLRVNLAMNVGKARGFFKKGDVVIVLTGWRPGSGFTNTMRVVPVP
Sequence of L-alanine dehydrogenase (Ala-DH) (Q08352 whole entry): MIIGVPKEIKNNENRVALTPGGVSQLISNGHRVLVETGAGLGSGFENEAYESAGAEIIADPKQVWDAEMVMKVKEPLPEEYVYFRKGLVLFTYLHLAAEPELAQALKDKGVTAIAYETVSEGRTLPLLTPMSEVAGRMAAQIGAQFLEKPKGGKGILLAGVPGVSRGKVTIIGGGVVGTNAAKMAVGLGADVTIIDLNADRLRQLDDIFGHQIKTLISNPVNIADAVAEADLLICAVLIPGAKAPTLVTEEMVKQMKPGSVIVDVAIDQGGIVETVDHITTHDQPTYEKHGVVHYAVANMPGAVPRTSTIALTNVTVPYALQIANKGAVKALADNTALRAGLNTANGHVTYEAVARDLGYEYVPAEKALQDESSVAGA
Sequence of 3-phosphoglycerate kinase (3-PGK) (P00560 whole entry): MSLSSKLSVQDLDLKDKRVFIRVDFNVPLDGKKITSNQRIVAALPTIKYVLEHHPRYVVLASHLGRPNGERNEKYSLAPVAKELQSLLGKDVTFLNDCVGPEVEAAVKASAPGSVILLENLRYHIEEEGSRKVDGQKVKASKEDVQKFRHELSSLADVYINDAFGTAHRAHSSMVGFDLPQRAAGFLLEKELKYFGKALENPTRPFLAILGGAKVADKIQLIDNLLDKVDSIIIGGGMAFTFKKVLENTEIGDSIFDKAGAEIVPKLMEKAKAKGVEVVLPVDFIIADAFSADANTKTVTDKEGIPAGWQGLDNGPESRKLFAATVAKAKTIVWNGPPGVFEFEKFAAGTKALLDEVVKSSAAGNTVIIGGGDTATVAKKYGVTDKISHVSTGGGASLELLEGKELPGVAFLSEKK

Regarding `COc1ccc2c(c1)C1CC1(N)Cn1c-2c(C2CCCCC2)c2ccc(C(=O)NS(=O)(=O)N(C)C)cc21` (stereo not shown) [2-phenol indole, 5a-amino-12-cyclohexyl-N-(N,N-dimethylsulfamoyl)-3-methoxy-4b,5,5a,6-tetrahydrobenzo [3,4] cyclopropa [5,6] azepino [1,2-a] indole-9-carboxamide, reference compound], the EC90 in data set [1] (setting [29]) turned out to be 60800 ± 19900 nM. Moreover, the EC90 fold change in data set [1] (P495L mutant EC90 normalised to wild-type) is 51.9.
Regarding `O=c1[nH]cc(F)c(=O)[nH]1` [5-fluorouracil, 5-Fluorouracil, reference compound], the “inhibition of BFU-E colony formation” value in [2] is “completely inhibited”. The “inhibition of CFU-GM colony formation” value in [3] was “completely inhibited”.
Consider `O=[N+]([O-])c1ccc(OP(=O)(O)Oc2ccc([N+](=O)[O-])cc2)cc1` [BNPP, bis(4-nitrophenyl)phosphate], for which the “effect on formation of the triphosphate PSI-352666 from PSI-353661” value in [4] is “inhibited the formation of PSI-352666 in hepatocytes from three different donors in a dose-dependent manner”.
`CC(C)CCn1c(=O)c(C2=NS(=O)(=O)c3cc(N(C)S(C)(=O)=O)ccc3N2)c(O)c2cccn21` [Benzothiadiazine, N-{3-[4-Hydroxy-1-(3-methyl-butyl)-2-oxo-1,2-dihydro-pyrrolo[1,2-b]pyridazin-3-yl]-1,1-dioxo-1,4-dihydro-1λ^6-benzo[1,2,4]thiadiazin-7-yl}-N-methyl-methanesulfonamide, reference compound]: in [5] (setting [29]), the EC90 was 28400 ± 13700 nM. In data set [5] (M414T mutant EC90 normalised to wild-type), the EC90 fold change is listed as 23.1.
`Nc1nc2c(ncn2[C@@H]2O[C@H](COP(=O)(O)OP(=O)(O)O)[C@@H](O)[C@H]2O)c(=O)[nH]1` [GDP, guanosine-5′-diphosphate, reference compound]: in data set [6], the “kcat (apparent)” value was found to be 38.8 ± 5.0 s⁻¹ and the Km stood at 56.2 ± 4.9 µM.
In the case of `Nc1ccn([C@@H]2O[C@H](CO)[C@@H](O)C2(F)F)c(=O)n1` [Gemcitabine, 2′-deoxy-2′-difluorocytidine], the CC50 at 8 days in data set [7] (BxPC3 cells), in [8] (Huh7 cells), in data set [9] (CEM cells) and in [10] (HepG2 cells) was below 1000 nM in each case.
As for `COc1nc(N)nc2c1ncn2[C@@H]1O[C@H](COP(=O)(N[C@@H](C)C(=O)OCC(C)(C)C)Oc2cccc3ccccc23)[C@@H](O)[C@@]1(C)O` (stereo partly shown) [INX-08189], the CC50 at 8 days in [7] amounted to 2810 ± 1520 nM; in [8], 320 ± 30 nM; in data set [9], 15000 ± 2000 nM; in data set [10] it was 2230 ± 100 nM. The CC90 at 14 days in [11] worked out at 750 ± 270 nM; in data set [12], 970 ± 620 nM; in data set [13], 16300 ± 4100 nM; in data set [14], 16900 ± 1700 nM. The EC90 in data set [15] (Hepatitis C virus) turned out to be 5.9 ± 2.7 nM; in [16] (Hepatitis C virus) it was 18 ± 1 nM; in [19] (Hepatitis C virus), 110 ± 4 nM. Moreover, the EC90 fold change in data set [15] turned out to be 1.1; in data set [19], 6.1. For the same compound, the “Lactic acid (Fold change from untreated cells)” value is given as 1.4 ± 0.35 in [17] (0.1 μM); 1.4 ± 0.69 in data set [17] (1.0 μM); 1.5 ± 0.50 in [17] (10 μM); “Toxic” in [17] (50 μM); 1.1 ± 0.21 in [18] (0.1 μM); 3.1 ± 0.61 in [18] (1.0 μM). In addition, the “Lactic acid (Fold change from untreated cells)” value in data set [18] (10 μM) and in [18] (50 μM) was “Toxic” in each case.
Regarding `CC(C)OC(=O)[C@H](C)NP(=O)(OC[C@H]1O[C@@H](n2ccc(=O)[nH]c2=O)[C@](C)(F)[C@@H]1O)Oc1ccccc1` (stereo partly shown) [PSI-7851], the EC90 was 430 ± 230 nM in data set [20]; 390 ± 190 nM in data set [15] (S96T/N142T, luciferase-based assay); 440 ± 210 nM in [16] (Clone A wild type replicon, RT-PCR assay); 7360 ± 1020 nM in data set [19] (S282T, RT-PCR assay). Further, the EC90 fold change in data set [15] came to 0.9; in [19], 16.7.
Turning to `C[C@@]1(F)[C@H](O)[C@@H](COP(=O)(O)OP(=O)(O)O)O[C@H]1n1cnc2c(=O)[nH]c(N)nc21` [PSI-353579, 2′-deoxy-2′-α-fluoro-2′-β-C –methylguanosine-5′-diphosphate], in data set [6], the “kcat (apparent)” value was 44.6 ± 4.9 s⁻¹ and the Km came to 66.3 ± 2.2 µM. The “phosphorylation by 3-PGK” value in [21] is reported as “Phosphorylation of PSI-353579 was also observed”. Besides, the “phosphorylation by PK” value in data set [22] is recorded as “Phosphorylation of PSI-353579 was also observed”. Also, the “time to maximum intracellular concentration” value in data set [23] was 1 to 2 h.
`CC(C)N(c1cc(-c2ccccc2)sc1C(=O)O)C(=O)[C@H]1CC[C@H](C)CC1` [Thiophene, 3-((1r,4r)-N-isopropyl-4-methylcyclohexanecarboxamido)-5-phenylthiophene-2-carboxylic acid, reference compound]: the EC90 in [20] was 3650 ± 210 nM; in [24] (read-out: EC90 Mutant replicon, M423T, luciferase-based assay) it was 69500 ± 9240 nM. Also, in [24] (M423T mutant EC90 normalised to wild-type), the EC90 fold change worked out at 19.1.
On to `C[C@H](N)C(=O)O` [alanine, L-alanine], for which the Vmax in [25] is reported as 0.0206 ± 0.0005 ΔA340/min.
In the case of `Nc1ccn([C@H]2CC[C@@H](CO)O2)c(=O)n1` [ddC, 2′,3′-dideoxycytidine], the “reduction of mitochondrial DNA levels” value in data set [26] and in data set [27] was “more than one log10” each time. In addition, the CC90 at 14 days in data set [11] (HepG2 cells) was 12900 ± 9100 nM; in data set [12] it was below 500 nM; in [13] (CEM cells), 22900 ± 11900 nM; in data set [14] it was below 500 nM. In addition, the “Lactic acid (Fold change from untreated cells)” value in data set [17] (0.1 μM) is on record as 0.9 ± 0.3; in data set [17] (1.0 μM), 2.2 ± 0.81; in data set [17] (10 μM) it was 4.2 ±1.0; in data set [17] (50 μM) it was “Toxic”; in data set [18] (0.1 μM), 1.6 ± 0.68; in [18] (1.0 μM), 1.4 ± 0.12. The “Lactic acid (Fold change from untreated cells)” value in [18] (10 μM) is given as 3.9 ± 0.93; in [18] (50 μM), “Toxic”.
On to `CCC[C@H](NC(=O)[C@@H]1[C@H]2CCC[C@H]2CN1C(=O)[C@@H](NC(=O)[C@@H](NC(=O)c1cnccn1)C1CCCCC1)C(C)(C)C)C(=O)C(=O)NC1CC1` [telaprevir], for which, in data set [28], the “effect on formation of the triphosphate PSI-352666 from PSI-353661” value is on record as “not inhibited by telaprevir in hepatocytes from two of the three donors”.

A word on the EC90: it is the concentration needed for an effect of 90%. What is called Km is the concentration of substrate that gives half-maximal velocity. In general, CC50 refers to the concentration at which the toxic effect on the cells reaches its halfway point.
